Measured values published in patent US20200131132A1, “FARNESOID X RECEPTOR AGONISTS AND USES THEREOF” (Metacrine, Inc., priority 2017, published 2020).

Target: T1, hFXR (Homo sapiens, UniProt Q96RI1)
T1 construct: expressed in transfected cells; host or cells: CV-1 cells
T1 sequence (Q96RI1 1-486): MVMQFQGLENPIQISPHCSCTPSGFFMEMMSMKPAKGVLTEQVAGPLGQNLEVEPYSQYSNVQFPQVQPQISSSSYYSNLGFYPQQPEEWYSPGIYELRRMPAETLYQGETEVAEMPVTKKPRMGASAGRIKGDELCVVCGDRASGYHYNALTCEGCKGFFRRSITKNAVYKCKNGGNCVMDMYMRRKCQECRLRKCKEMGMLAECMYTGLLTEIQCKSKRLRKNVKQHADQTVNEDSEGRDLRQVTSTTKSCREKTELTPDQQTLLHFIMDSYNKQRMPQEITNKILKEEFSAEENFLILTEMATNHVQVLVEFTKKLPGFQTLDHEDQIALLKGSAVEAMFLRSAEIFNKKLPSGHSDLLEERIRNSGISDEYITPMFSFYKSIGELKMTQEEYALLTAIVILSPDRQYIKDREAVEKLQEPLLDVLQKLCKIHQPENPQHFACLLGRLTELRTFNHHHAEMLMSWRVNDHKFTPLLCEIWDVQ
T1 sequence (P19793 1-462 partner): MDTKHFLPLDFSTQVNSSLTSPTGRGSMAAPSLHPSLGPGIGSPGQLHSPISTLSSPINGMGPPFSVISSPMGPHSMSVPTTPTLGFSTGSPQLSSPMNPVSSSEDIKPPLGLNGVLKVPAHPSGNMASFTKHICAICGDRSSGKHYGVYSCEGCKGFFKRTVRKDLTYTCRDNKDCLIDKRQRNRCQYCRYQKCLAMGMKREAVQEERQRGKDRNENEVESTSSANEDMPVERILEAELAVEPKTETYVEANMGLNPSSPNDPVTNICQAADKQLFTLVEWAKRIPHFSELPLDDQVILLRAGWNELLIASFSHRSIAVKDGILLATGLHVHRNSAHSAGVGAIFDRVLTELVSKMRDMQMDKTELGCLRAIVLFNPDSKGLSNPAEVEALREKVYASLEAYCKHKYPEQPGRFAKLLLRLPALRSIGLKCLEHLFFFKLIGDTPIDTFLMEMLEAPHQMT
Assay: In Vitro FXR Assay (TK)
Format: cell-based
Conditions: CV-1 cells transfected with hFXR, hRXR, TK-ECRE-luc and pCMX-YFP; compounds incubated 18 hrs; luminescence
Procedure, shortened: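 Transiently transfected monkey CV-1 cells (hFXR, hRXR, TK-ECRE-luciferase, YFP control plasmid), held in stripped-serum DMEM, received compound dilutions from DMSO for 18 h at 37 °C. Activity was taken from luminescence of the cell lysates.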

SMILES	EC50
COc1ccc(-c2ccc(CN(C(=O)CC(C)(C)C)c3nccc4c(C#N)cccc34)cc2)cc1C [Compound 13.02, N-(5-Cyanoisoquinolin-1-yl)-N-((4′-methoxy-3′-methyl-[1,1′-biphenyl]-4-yl)methyl)-3,3-dimethylbutanamide]	> 10000 nM
COc1ccc(-c2ccc(CN(C(=O)CC(C)(C)C)c3nccc4cc(-c5ncco5)ccc34)cc2)cc1C [Compound 14, N-((4′-Methoxy-3′-methyl-[1,1′-biphenyl]-4-yl)methyl)-3,3-dimethyl-N-(6-(oxazol-2-yl)isoquinolin-1-yl)butanamide]	≤ 1000 nM
COc1ncc(-c2ccc3c(N(Cc4ccc(-c5ccc(OC)c(C)c5)cc4)C(=O)CC(C)(C)C)nccc3c2)s1 [Compound 15, N-((4′-Methoxy-3′-methyl-[1,1′-biphenyl]-4-yl)methyl)-N-(6-(2-methoxythiazol-5-yl)isoquinolin-1-yl)-3,3-dimethylbutanamide]	1000 to 10000 nM
COc1ccc(-c2ccc(CN(C(=O)CC(C)(C)C)c3nccc4cc(-c5ccccn5)ccc34)cc2)cc1C [Compound 16, N-((4′-Methoxy-3′-methyl-[1,1′-biphenyl]-4-yl)methyl)-3,3-dimethyl-N-(6-(pyridin-2-yl)isoquinolin-1-yl)butanamide]	≤ 1000 nM
COc1ccc(-c2ccc(CN(C(=O)CC(C)(C)C)c3nccc4cc(C(C)(C)O)ccc34)cc2)cc1C [Compound 17, N-(6-(2-Hydroxypropan-2-yl)isoquinolin-1-yl)-N-((4′-methoxy-3′-methyl-[1,1′-biphenyl]-4-yl)methyl)-3,3-dimethylbutanamide]	≤ 1000 nM
COc1ccc(-c2ccc(CN(C(C)=O)c3nccc4cc(C(C)(C)O)ccc34)cc2)cc1C [Compound 18, N-(6-(2-Hydroxypropan-2-yl)isoquinolin-1-yl)-N-((4′-methoxy-3′-methyl-[1,1′-biphenyl]-4-yl)methyl)acetamide]	> 10000 nM
COc1ccc(-c2ccc(CN(C(=O)CC(C)(C)C)c3nccc4cc(C(=O)N(C)C)ccc34)cc2)cc1C [Compound 19, 1-(N-((4′-Methoxy-3′-methyl-[1,1′-biphenyl]-4-yl)methyl)-3,3-dimethylbutanamido)-N,N-dimethylisoquinoline-6-carboxamide]	≤ 1000 nM
COc1ccc(-c2ccc(CN(C(=O)CC(C)(C)C)c3nccc4ccccc34)cc2)cc1C [Compound 20, N-(Isoquinolin-1-yl)-N-((4′-methoxy-3′-methyl-[1,1′-biphenyl]-4-yl)methyl)-3,3-dimethylbutanamide]	≤ 1000 nM
COc1ccc2c(N(Cc3ccc(-c4ccc(OC)c(C)c4)cc3CO)C(=O)CC(C)(C)C)nccc2c1 [Compound 21, N-((3-(Hydroxymethyl)-4′-methoxy-3′-methyl-[1,1′-biphenyl]-4-yl)methyl)-N-(6-methoxyisoquinolin-1-yl)-3,3-dimethylbutanamide]	1000 to 10000 nM
COc1ccc(-c2ccc(CN(C(=O)CC(C)(C)C)c3nccc4cc(/C=C\CO)ccc34)cc2)cc1C [Compound 22, (Z)-N-(6-(3-Hydroxyprop-1-en-1-yl)isoquinolin-1-yl)-N-((4′-methoxy-3′-methyl-[1,1′-biphenyl]-4-yl)methyl)-3,3-dimethylbutanamide]	≤ 1000 nM
COc1ccc(-c2ccc(CN(C(=O)CC(C)(C)C)c3nccc4cc(/C=C/CO)ccc34)cc2)cc1C [Compound 23, (E)-N-(6-(3-Hydroxyprop-1-en-1-yl)isoquinolin-1-yl)-N-((4′-methoxy-3′-methyl-[1,1′-biphenyl]-4-yl)methyl)-3,3-dimethylbutanamide]	≤ 1000 nM
COc1ccc(-c2ccc(CN(C(=O)CC(C)(C)C)c3nccc4cc(CCCO)ccc34)cc2)cc1C [Compound 24, N-(6-(3-Hydroxypropyl)isoquinolin-1-yl)-N-((4′-methoxy-3′-methyl-[1,1′-biphenyl]-4-yl)methyl)-3,3-dimethylbutanamide]	≤ 1000 nM
COc1ccc(-c2ccc(CN(C(=O)CC(C)(C)C)c3nccc4cc(CCO)ccc34)cc2)cc1C [Compound 25, N-(6-(2-Hydroxyethyl)isoquinolin-1-yl)-N-((4′-methoxy-3′-methyl-[1,1′-biphenyl]-4-yl)methyl)-3,3-dimethylbutanamide]	≤ 1000 nM
COc1ccc(-c2ccc(CN(C(=O)CC(C)(C)C)c3nccc4cc(C(C)O)ccc34)cc2)cc1C (centres unmarked) [Compound 26, N-(6-(1-Hydroxyethyl)isoquinolin-1-yl)-N-((4′-methoxy-3′-methyl-[1,1′-biphenyl]-4-yl)methyl)-3,3-dimethylbutanamide]	≤ 1000 nM
COc1ccc(-c2ccc(CN(C(=O)CC(C)(C)C)c3nccc4cc(CC#N)ccc34)cc2)cc1C [Compound 27, N-(6-(Cyanomethyl)isoquinolin-1-yl)-N-((4′-methoxy-3′-methyl-[1,1′-biphenyl]-4-yl)methyl)-3,3-dimethylbutanamide]	≤ 1000 nM
COc1ccc(-c2ccc(CN(C(=O)CC(C)(C)C)c3nccc4cc(OC5CCNCC5)ccc34)cc2)cc1C [Compound 28, N-((4′-Methoxy-3′-methyl-[1,1′-biphenyl]-4-yl)methyl)-3,3-dimethyl-N-(6-(piperidin-4-yloxy)isoquinolin-1-yl)butanamide]	> 10000 nM
COc1ccc(-c2ccc(CN(C(=O)CC(C)(C)C)c3nccc4cc(OCC(=O)O)ccc34)cc2)cc1C [Compound 29, 2-((1-(N-((4′-Methoxy-3′-methyl-[1,1′-biphenyl]-4-yl)methyl)-3,3-dimethylbutanamido)isoquinolin-6-yl)oxy)acetic acid]	> 10000 nM

The remaining lines, values ahead:

EC50	SMILES
≤ 1000 nM	COc1ccc(-c2ccc(CN(C(=O)CC(C)(C)C)c3nccc4cc(-c5nccs5)ccc34)cc2)cc1C [Compound 14.01, N-((4′-Methoxy-3′-methyl-[1,1′-biphenyl]-4-yl)methyl)-3,3-dimethyl-N-(6-(thiazol-2-yl)isoquinolin-1-yl)butanamide]
1000 to 10000 nM	COc1cccc(-c2ccc3c(N(Cc4ccc(-c5ccc(OC)c(C)c5)cc4)C(=O)CC(C)(C)C)nccc3c2)n1 [Compound 15.01, N-((4′-Methoxy-3′-methyl-[1,1′-biphenyl]-4-yl)methyl)-N-(6-(6-methoxypyridin-2-yl)isoquinolin-1-yl)-3,3-dimethylbutanamide]
1000 to 10000 nM	CNC(=O)c1ccc2c(N(Cc3ccc(-c4ccc(OC)c(C)c4)cc3)C(=O)CC(C)(C)C)nccc2c1 [Compound 19.01, 1-(N-((4′-Methoxy-3′-methyl-[1,1′-biphenyl]-4-yl)methyl)-3,3-dimethylbutanamido)-N-methylisoquinoline-6-carboxamide]
1000 to 10000 nM	COc1ccc(-c2ccc(CN(C(=O)CC(C)(C)C)c3nccc4cc(COCC(=O)N(C)C)ccc34)cc2)cc1C [Compound 19.02, N-(6-((2-(Dimethylamino)-2-oxoethoxy)methyl)isoquinolin-1-yl)-N-((4′-methoxy-3′-methyl-[1,1′-biphenyl]-4-yl)methyl)-3,3-dimethylbutanamide]
> 10000 nM	COC(=O)c1cc(-c2ccc(OC)c(C)c2)ccc1CN(C(=O)CC(C)(C)C)c1nccc2cc(OC)ccc12 [Compound 20.01, Methyl 4′-methoxy-4-((N-(6-methoxyisoquinolin-1-yl)-3,3-dimethylbutanamido)methyl)-3′-methyl-[1,1′-biphenyl]-3-carboxylate]
≤ 1000 nM	COC(=O)c1cc(CN(C(=O)CC(C)(C)C)c2nccc3cc(OC)ccc23)ccc1-c1ccc(OC)c(C)c1 [Compound 20.02, Methyl 4′-methoxy-4-((N-(6-methoxyisoquinolin-1-yl)-3,3-dimethylbutanamido)methyl)-3′-methyl-[1,1′-biphenyl]-2-carboxylate]
1000 to 10000 nM	COc1ccc2c(N(Cc3ccc(-c4ccc(OC)c(C)c4)c(CO)c3)C(=O)CC(C)(C)C)nccc2c1 [Compound 21.01, N-((2-(Hydroxymethyl)-4′-methoxy-3′-methyl-[1,1′-biphenyl]-4-yl)methyl)-N-(6-methoxyisoquinolin-1-yl)-3,3-dimethylbutanamide]
1000 to 10000 nM	COc1ccc(-c2ccc(CN(C(=O)CC(C)(C)C)c3nccc4cc(OC5CNC5)ccc34)cc2)cc1C [Compound 28.01, N-(6-(Azetidin-3-yloxy)isoquinolin-1-yl)-N-((4′-methoxy-3′-methyl-[1,1′-biphenyl]-4-yl)methyl)-3,3-dimethylbutanamide]
1000 to 10000 nM	COc1ccc(-c2ccc(CN(C(=O)CC(C)(C)C)c3nccc4cc(COCC(=O)O)ccc34)cc2)cc1C [Compound 29.01, 2-((1-(N-((4′-Methoxy-3′-methyl-[1,1′-biphenyl]-4-yl)methyl)-3,3-dimethylbutanamido)isoquinolin-6-yl)methoxy)acetic acid]
